# According to US20260151518A1, “LEUKOCYTE-SPECIFIC CELL PENETRATING MOLECULES” (Amytrx Therapeutics, Inc., priority 2021, published 2026):
# Assays:
# [1] = Pharmacokinetics of [3H]-AMTX-100 after multiple routes of administration; type: in vivo, rat; conditions: rats, [3H]-AMTX-100
# Description: AMTX-100 was radiolabeled with 3H at lysine residues and injected into Sprague-Dawley rats in a single dose by seven different routes (intravenous, subcutaneous, topical [skin], intratracheal, intraduodenal, esophageal, and oral). The rats were evaluated at various time points, up to 120 hours, by: a) blood samples were taken for pharmacokinetics (PK) by cardiac puncture; b) rats were frozen and sectioned for QWBA and/or micro-auto-radiography and histology; and c) frozen sections were made and freeze dried and exposed to phosphor-storage imaging plates and tissue radioactivity in images was quantified as tissue: blood ratios.
# For all PK studies, the following definitions were used: WB=whole blood; Plasma=whole blood depleted of red blood cells; WBCD=whole blood depleted of white blood cells in which the whole blood is passed over a Pall Acrodisc filter (about 60% efficient); WBCs=the cells which bind to, and are washed off, the Pall Acrodisc filter.
# [2] = Pharmacokinetic study, AMTX-100 in plasma by LC-MS; type: in vivo; conditions: mice, sensitive to 2 ng/ml
# [3] = tested on: Human whole blood (WB); assay: Flow cytometry of human whole blood incubated with FITC-labelled peptide; type: cell-based
# Description: It was originally believed that the SSHR on AMTX-100 could enter cells without a receptor, energy or endocytosis. However, in studies performed by the present inventors, an AMTX-100-related peptide with a double-null knockout for Importin α/Importin β complex and Importin β obtained by amino acid substitution and also containing a FITC molecule (FITC-SMTX-100), was incubated with human blood and analyzed by flow cytometry.
# Because there appeared to be a concentration of radioactivity in organs with immune cells, a series of flow cytometry experiments was initiated with human blood. All cells were first stained with FITC-AMTX-100 and then incubated with immunotyping reagents that separated hematopoietic cells into broad categories of RBCs, granulocytes, monocytes, B- and T-lymphocytes, and NK cells. […] Again, a highly unexpected finding for a peptide which is “purported” to be a promiscuous, cell-penetrating, leader sequence.
# Human whole blood (WB) was obtained from multiple normal donors and incubated with [FITC]-AMTX-100 at μg/mL quantities in repeat experiments ex vivo.
# Panels of monoclonal antibodies labeled with fluorescent dyes were used to phenotypically identify [FITC]-AMTX-100 penetrated WB cells including classical monocytes, non-classical monocytes, neutrophils, basophils, eosinophils, and T- and B-lymphocytes and NK cells (FIG. 4A-B). […]
# [4] = tested on: animal models of lung, liver, sepsis, and metabolic syndrome induced inflammation; conditions: intraperitoneal injections; cited from earlier work
smiles,measurement,setting,value
CSCC[C@@H]1NC(=O)[C@H](CC(C)C)NC(=O)[C@H](CCCCN)NC(=O)[C@H](CCC(N)=O)CC(=O)[C@H](CCCNC(=N)N)NC(=O)[C@H](CCCCN)NC(=O)[C@H](CCCNC(=N)N)NC(=O)[C@H](CCC(N)=O)NC(=O)[C@H](C(C)C)NC(=O)[C@@H](NC(=O)[C@@H]2CCCN2C(=O)[C@H](C)NC(=O)[C@H](CC(C)C)NC(=O)[C@H](CC(C)C)NC(=O)[C@H](C)NC(=O)[C@H](CC(C)C)NC(=O)[C@H](CC(C)C)NC(=O)[C@@H](NC(=O)[C@H](C)NC(=O)[C@@H]2CCCN2C(=O)[C@H](CC(C)C)NC(=O)[C@H](CC(C)C)NC(=O)[C@H](C)NC(=O)[C@@H](NC(=O)[C@H](C)NC(=O)[C@H](C)N)C(C)C)C(C)C)CSSC[C@@H](C(=O)O)NC(=O)[C@@H]2CCCN2C1=O [AMTX-100],Partition of radiation in blood,[1],partitioned to the WBCs
same,Detection of AMTX-100 in plasma depleted of RBCs and WBCs,[2],not possible to detect
same,Leukocyte populations targeted,[3],"leukocytes (classical and non-classical monocytes, neutrophils, basophils and eosinophils)"
same,Efficacy in animal models of inflammation,[4],have shown efficacy
